Experimental findings from article PMC12903969, “Discovery of a Novel and Potent Kir4.1 Inhibitor as a Safe and Rapid‐Onset Antidepressant Agent in Mice” (Advanced Science, 2025) are described below.

In one assay the target is T1, Kir4.1 T162A (Homo sapiens, UniProt P78508, T162A).
T1 construct: expressed in transfected cells; host or cells: CHO-K1
The assay can be described thus: Whole-cell patch clamp, Kir4.1 point mutant T162A. It is filed as cell-based. As to conditions: JX3212 3 µM (Fig 2D). Here is the method:
Plasmids encoding WT human potassium channels Kir1.1, Kir2.1, Kir2.2, Kir4.1, and Kir4.2 were obtained from the Beijing Genomics Institute. All point mutations were constructed using the QuickChange II Site‐Directed Mutagenesis Kit (Stratagene) and subsequently verified by sequencing.
CHO‐K1 cells were maintained in DMEM/F12 growth medium containing 10% fetal bovine serum. Plasmids encoding the target genes (3600 ng) and enhanced green fluorescent protein (400 ng) were cotransfected into cells using Lipofectamine 2000 (Invitrogen) in accordance with the manufacturer's instructions. Cells were seeded onto poly‐d‐lysine (PDL)‐coated glass coverslips 1 h prior to electrophysiological recordings. […]
Whole‐cell patch‐clamp recordings were obtained either in transiently transfected CHO‐K1 cells or in primary cultured astrocytes at room temperature using standard patch‐clamp techniques with an Axopatch‐700B amplifier (Axon Instruments). […] Macroscopic currents generated by expressed potassium channels were recorded under the voltage‐clamp conditions with an internal pipette solution composed of (in mM): 140 KCl, 5 NaCl, 1 CaCl2, 1 MgCl2, 10 HEPES, and 10 EGTA, pH 7.2 adjusted with KOH. […] Astrocytic resting membrane potentials were recorded under current‐clamp conditions (I = 0 pA) using standard internal and external solutions, determined immediately after achieving whole‐cell mode.
Background: In patch-clamp work, channel activity is measured electrically.

Assay [1] concerns the target T2, 5-HTT (serotonin transporter, SERT) (Homo sapiens, UniProt P31645).
T2 construct: expressed in transfected cells
The assay can be described thus: 5-HTT functional assay (fluorescent neurotransmitter transporter uptake). Type of assay: cell-based. Set-up: SERT inhibition, replicates: unit not given here. As to the method: The 5‐HTT/DAT functional assays were commissioned by Elsevier Science and Technology Co., Ltd. (Beijing). A fluorescence‐based neurotransmitter assay was conducted using a Neurotransmitter Transporter Uptake Assay Kit (Molecular Devices, R8174), according to the manufacturer's protocol. Flp‐in T‐rex 293 cells transiently expressing the human norepinephrine transporter and HEK293 cells stably expressing the human dopamine or serotonin transporters were seeded in PDL‐coated 384‐well plates and incubated overnight. Subsequently, the medium was removed, and the cells were treated with 16 µL of compounds diluted in assay buffer for 0.5 h at 37 °C. Centanafadine and 0.1% DMSO served as positive and negative controls, respectively. Then, 16 µL of dye mix prepared in 1× Hanks’ Balanced Salt Solution was added to each well and incubated at 37 °C for 1 h. Finally, the data point was acquired via a fluorescence plate reader with excitation at 450 nm and emission at 528 nm.

Several values for one entry are separate records, joined by “and”; a condition that tells them apart may be missing. Identical values can stand only once.

T2 sequence (P31645 whole entry): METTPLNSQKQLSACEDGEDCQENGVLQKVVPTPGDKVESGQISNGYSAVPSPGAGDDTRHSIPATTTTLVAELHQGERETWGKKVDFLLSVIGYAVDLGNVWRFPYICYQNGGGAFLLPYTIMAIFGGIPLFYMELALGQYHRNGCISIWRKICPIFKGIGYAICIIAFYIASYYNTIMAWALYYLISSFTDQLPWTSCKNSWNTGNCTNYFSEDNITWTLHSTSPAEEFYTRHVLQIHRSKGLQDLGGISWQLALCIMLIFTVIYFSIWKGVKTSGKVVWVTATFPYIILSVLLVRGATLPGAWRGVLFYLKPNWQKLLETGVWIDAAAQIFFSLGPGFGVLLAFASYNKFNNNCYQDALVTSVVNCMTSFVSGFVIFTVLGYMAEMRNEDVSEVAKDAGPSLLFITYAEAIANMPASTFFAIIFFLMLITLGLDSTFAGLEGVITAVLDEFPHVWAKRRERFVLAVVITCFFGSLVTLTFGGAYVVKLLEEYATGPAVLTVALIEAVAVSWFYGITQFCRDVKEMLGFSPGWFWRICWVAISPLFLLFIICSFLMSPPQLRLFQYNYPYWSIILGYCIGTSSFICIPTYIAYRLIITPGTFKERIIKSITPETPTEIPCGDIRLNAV
T1 sequence (P78508 whole entry T162A): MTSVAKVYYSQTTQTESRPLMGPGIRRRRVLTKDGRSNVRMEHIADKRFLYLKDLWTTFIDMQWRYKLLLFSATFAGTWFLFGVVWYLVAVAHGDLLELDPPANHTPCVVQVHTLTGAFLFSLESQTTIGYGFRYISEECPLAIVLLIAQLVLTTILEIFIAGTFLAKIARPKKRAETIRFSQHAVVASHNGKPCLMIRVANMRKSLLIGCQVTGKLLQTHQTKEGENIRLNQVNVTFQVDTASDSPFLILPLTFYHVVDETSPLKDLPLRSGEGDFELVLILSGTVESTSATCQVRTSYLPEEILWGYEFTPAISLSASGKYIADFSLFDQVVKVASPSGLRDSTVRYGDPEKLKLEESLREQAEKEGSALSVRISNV

Broadly, the IC50 is the point on the concentration scale where inhibition reaches its midpoint. With `c1ccc2c(c1)oc1ccc(Nc3ccnc(NCCCN4CCOCC4)n3)cc12` [JX3212, N^4-(dibenzo[b,d]furan-2-yl)-N^2-(3-morpholinopropyl)pyrimidine-2,4-diamine], the “Mutation: T162A inhibition, single recordings” value at Kir4.1 T162A is 80.9735 and 73.6489 and 64.6435 and 83.1492 and 87.0339. This compound returned an IC50 in assay [1] of 6.45 µM. The “SERT inhibition, replicates” value in assay [1] (concentration 3) is 13.3 and 7.67; in assay [1] (concentration 10), 17.62 and 13.2; in assay [1] (concentration 30), 16.11 and 14.3; in assay [1] (concentration 100), 16.51 and 15.81; in assay [1] (concentration 300), 18.52 and 16.01; in assay [1] (concentration 1000), 49.66 and 31.98. The “SERT inhibition, replicates” value in assay [1] (concentration 3000) was 51.87 and 29.87; in assay [1] (concentration 10000) it was 69.95 and 46.05; in assay [1] (concentration 30000), 87.23 and 70.86; in assay [1] (concentration 100000 (unit not given)) it was 112.04 and 105.72.
